Data taken from ChEMBL document CHEMBL2073911, “Sensitivity of bile acid transport by organic anion-transporting polypeptides to intracellular pH” (Biochim Biophys Acta, 2003).

Biological target: T1, Solute carrier organic anion transporter family member 1A1 (Rattus norvegicus, UniProt P46720)
T1 sequence (P46720 whole entry): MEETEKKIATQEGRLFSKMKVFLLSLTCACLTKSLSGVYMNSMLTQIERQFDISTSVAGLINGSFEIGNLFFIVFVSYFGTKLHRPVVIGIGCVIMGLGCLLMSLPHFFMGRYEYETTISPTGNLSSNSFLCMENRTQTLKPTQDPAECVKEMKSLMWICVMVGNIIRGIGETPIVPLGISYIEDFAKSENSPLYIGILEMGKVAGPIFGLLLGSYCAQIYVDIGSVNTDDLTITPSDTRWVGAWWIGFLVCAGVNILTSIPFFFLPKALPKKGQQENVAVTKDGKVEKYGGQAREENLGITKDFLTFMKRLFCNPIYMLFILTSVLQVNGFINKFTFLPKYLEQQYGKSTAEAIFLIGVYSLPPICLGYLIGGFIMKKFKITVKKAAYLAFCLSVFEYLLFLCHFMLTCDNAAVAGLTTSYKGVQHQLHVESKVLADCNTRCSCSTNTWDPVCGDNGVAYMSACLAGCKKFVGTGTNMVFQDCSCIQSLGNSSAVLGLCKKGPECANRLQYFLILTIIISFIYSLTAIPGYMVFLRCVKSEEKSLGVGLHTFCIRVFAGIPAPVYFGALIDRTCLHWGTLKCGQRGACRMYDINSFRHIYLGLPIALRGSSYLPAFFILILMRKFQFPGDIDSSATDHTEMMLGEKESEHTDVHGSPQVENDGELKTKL
Test: TP_TRANSPORTER: uptake in Oatp1-expressing CHO-03 cell
Format: functional, cell-based
Settings: hamster

Activity: substrate [+]
Structure (SMILES): C[C@H](CCC(=O)NCC(=O)O)[C@H]1CC[C@H]2[C@@H]3[C@H](O)C[C@@H]4C[C@H](O)CC[C@]4(C)[C@H]3C[C@H](O)[C@]12C [GLYCOCHOLIC ACID]
